For 23 compounds, EC50 results are on record in patent US9951065B2 (Gilead Sciences, Inc., priority 2015, dated 2018).

pEC50: −log10 of the molar value.

One experiment deals with T1, IDO1 (Homo sapiens, UniProt P14902).
T1 construct: HeLa cells were treated with a test compound in the presence of IFNγ, which induces IDO1 expression; host or cells: H1-HeLa cells, IDO1 induced with IFNγ
T1 sequence (P14902 whole entry): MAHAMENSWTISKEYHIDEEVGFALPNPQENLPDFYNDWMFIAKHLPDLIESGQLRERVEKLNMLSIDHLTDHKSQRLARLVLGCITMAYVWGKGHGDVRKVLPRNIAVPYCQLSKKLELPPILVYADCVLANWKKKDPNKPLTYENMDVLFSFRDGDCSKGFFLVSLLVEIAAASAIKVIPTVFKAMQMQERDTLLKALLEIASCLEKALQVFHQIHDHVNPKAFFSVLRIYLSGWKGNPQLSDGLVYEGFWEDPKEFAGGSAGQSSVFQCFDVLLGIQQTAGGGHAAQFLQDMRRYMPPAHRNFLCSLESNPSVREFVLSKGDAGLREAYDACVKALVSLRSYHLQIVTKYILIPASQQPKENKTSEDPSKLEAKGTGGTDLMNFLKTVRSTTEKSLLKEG
Put plainly: Cell-based (HeLa) assay for measurement of IDO1 inhibition (kynurenine levels in supernatant after IFNγ induction). The note with it: HeLa cells, IFNγ-induced IDO1, kynurenine in supernatant after 48 hour incubation; geometric mean of a minimum of four determinations. An outline of the steps: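 HeLa cells, 1,250 per well, treated with compound (0.5% DMSO final) plus IFNγ to induce IDO1, for 48 h. Supernatant kynurenine measured by TCA hydrolysis at 60 °C, then p-dimethylaminobenzaldehyde, absorbance 480 nm. EC50 from a four-parameter fit normalized to −/+IFNγ controls; geometric mean of at least four runs.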
Compound `CCNCc1nc2c(F)ccc(/C(=N/O)Nc3ccc(F)c(Cl)c3)c2[nH]1` [Example 287, N-(3-chloro-4-fluorophenyl)-2-((ethylamino)methyl)-4-fluoro-N′-hydroxy-1H-benzo[d]imidazole-7-carboximidamide] gave a pEC50 of 5.78.

With `CN(C)Cc1nc2c(F)ccc(/C(=N/O)Nc3ccc(F)c(Cl)c3)c2[nH]1` [Example 288, N-(3-chloro-4-fluorophenyl)-2-((dimethylamino)methyl)-4-fluoro-N′-hydroxy-1H-benzo[d]imidazole-7-carboximidamide], the pEC50 was 5.74.

Compound `CC(C)NCc1nc2c(F)ccc(/C(=N/O)Nc3ccc(F)c(Cl)c3)c2[nH]1` [Example 289, N-(3-chloro-4-fluorophenyl)-4-fluoro-N′-hydroxy-2-((isopropylamino)methyl)-1H-benzo[d]imidazole-7-carboximidamide] gave a pEC50 of 5.65.

Consider `CNCc1nc2c(F)ccc(/C(=N/O)Nc3ccc(F)c(Cl)c3)c2[nH]1` [Example 290, N-(3-chloro-4-fluorophenyl)-4-fluoro-N′-hydroxy-2-((methylamino)methyl)-1H-benzo[d]imidazole-7-carboximidamide], for which the negative-log EC50 (pEC50) was 5.89.

`NCc1nc2c(F)ccc(/C(=N/O)Nc3ccc(F)c(Cl)c3)c2[nH]1` [Example 291, 2-(aminomethyl)-N-(3-chloro-4-fluorophenyl)-4-fluoro-N′-hydroxy-1H-benzo[d]imidazole-7-carboximidamide] had a pEC50 of 5.58.

`CC(C)(O)CNc1nc2c(F)c(F)cc(/C(=N/O)Nc3ccc(F)c(Cl)c3)c2[nH]1` [Example 292, N-(3-chloro-4-fluorophenyl)-4,5-difluoro-N′-hydroxy-2-((2-hydroxy-2-methylpropyl)amino)-1H-benzo[d]imidazole-7-carboximidamide] had a pEC50 of 5.48.

As to `CC(O)CNc1nc2c(F)c(F)cc(/C(=N/O)Nc3ccc(F)c(Cl)c3)c2[nH]1` (centres unmarked) [Example 293, N-(3-chloro-4-fluorophenyl)-4,5-difluoro-N′-hydroxy-2-((2-hydroxypropyl)amino)-1H-benzo[d]imidazole-7-carboximidamide], the pEC50 was 5.52.

Compound `NC(=O)CNc1nc2c(F)c(F)cc(/C(=N/O)Nc3ccc(F)c(Cl)c3)c2[nH]1` [Example 294, 2-((7-(N-(3-chloro-4-fluorophenyl)-N′-hydroxycarbamimidoyl)-4,5-difluoro-1H-benzo[d]imidazol-2-yl)amino)acetamide] gave a pEC50 of 5.00.

In the case of `OCCNc1nc2c(F)c(F)cc(/C(=N/O)Nc3ccc(F)c(Cl)c3)c2[nH]1` [Example 295, N-(3-chloro-4-fluorophenyl)-4,5-difluoro-N′-hydroxy-2-((2-hydroxyethyl)amino)-1H-benzo[d]imidazole-7-carboximidamide], the pEC50 was 5.49.

Consider `O/N=C(\Nc1ccc(F)c(Cl)c1)c1cc(F)c(F)c2nc(NC3CC(O)C3)[nH]c12` (centres unmarked) [Example 296, N-(3-chloro-4-fluorophenyl)-4,5-difluoro-N′-hydroxy-2-((3-hydroxycyclobutyl)amino)-1H-benzo[d]imidazole-7-carboximidamide], for which the pEC50 was < 5.00.

`O/N=C(\Nc1ccc(F)c(Cl)c1)c1cc(F)c(F)c2nc(NCCCNc3ccccn3)[nH]c12` [Example 297, N-(3-chloro-4-fluorophenyl)-4,5-difluoro-N′-hydroxy-2-((3-(pyridin-2-ylamino)propyl)amino)-1H-benzo[d]imidazole-7-carboximidamide] showed a pEC50 of 5.94.

The compound `NS(=O)(=O)CCNc1nc2c(F)c(F)cc(/C(=N/O)Nc3ccc(F)c(Cl)c3)c2[nH]1` [Example 298, N-(3-chloro-4-fluorophenyl)-4,5-difluoro-N′-hydroxy-2-((2-sulfamoylethyl)amino)-1H-benzo[d]imidazole-7-carboximidamide] had a negative logarithm of the EC50 (pEC50) of 5.02.

Regarding `Cn1nccc1CNc1nc2c(F)c(F)cc(/C(=N/O)Nc3ccc(F)c(Cl)c3)c2[nH]1` [Example 299, N-(3-chloro-4-fluorophenyl)-4,5-difluoro-N′-hydroxy-2-(((1-methyl-1H-pyrazol-5-yl)methyl)amino)-1H-benzo[d]imidazole-7-carboximidamide], the pEC50 is 5.46.

Still in this experiment, the particulars now being: HeLa cells, IFNγ-induced IDO1, kynurenine in supernatant, 48 hour incubation; geometric mean of a minimum of four determinations.
Compound `O/N=C(\Nc1ccc(F)c(Cl)c1)c1cc(F)c(F)c2nc(NCCn3cccn3)[nH]c12` [Example 300, 2-((2-(1H-pyrazol-1-yl)ethyl)amino)-N-(3-chloro-4-fluorophenyl)-4,5-difluoro-N′-hydroxy-1H-benzo[d]imidazole-7-carboximidamide] gave a pEC50 of 5.45.

Compound `CN(C)C(=O)CNc1nc2c(F)c(F)cc(/C(=N/O)Nc3ccc(F)c(Cl)c3)c2[nH]1` [Example 301, 2-((7-(N-(3-chloro-4-fluorophenyl)-N′-hydroxycarbamimidoyl)-4,5-difluoro-1H-benzo[d]imidazol-2-yl)amino)-N,N-dimethylacetamide] gave a pEC50 of 5.40.

As to `CC(C)(O)Cc1nc2c(F)c(F)cc(/C(=N/O)Nc3ccc(F)c(Cl)c3)c2[nH]1` [Example 302, N-(3-chloro-4-fluorophenyl)-4,5-difluoro-N′-hydroxy-2-(2-hydroxy-2-methylpropyl)-1H-benzo[d]imidazole-7-carboximidamide], the pEC50 was < 5.00.

`CN(C)CCCCNc1nc2c(F)c(F)cc(/C(=N/O)Nc3ccc(F)c(Cl)c3)c2[nH]1` [Example 303, N-(3-chloro-4-fluorophenyl)-2-((4-(dimethylamino)butyl)amino)-4,5-difluoro-N′-hydroxy-1H-benzo[d]imidazole-7-carboximidamide] showed a pEC50 of 5.53.

In the case of `O/N=C(\Nc1ccc(F)c(Cl)c1)c1cc(F)c(F)c2nc(NCC3CCCNC3)[nH]c12` (centres unmarked) [Example 304, N-(3-chloro-4-fluorophenyl)-4,5-difluoro-N′-hydroxy-2-((piperidin-3-ylmethyl)amino)-1H-benzo[d]imidazole-7-carboximidamide], the pEC50 was < 5.00.

`CN1CCCCC1Cc1nc2nccc(/C(=N/O)Nc3ccc(F)c(Cl)c3)c2[nH]1` (centres unmarked) [Example 305, N-(3-chloro-4-fluorophenyl)-N′-hydroxy-2-((1-methylpiperidin-2-yl)methyl)-1H-imidazo[4,5-b]pyridine-7-carboximidamide] had a pEC50 of 5.46.

`O/N=C(\Nc1cccc(Br)c1)c1ccnc2nc(NCCN3CCOCC3)[nH]c12` [Example 306, N-(3-bromophenyl)-N′-hydroxy-2-((2-morpholinoethyl)amino)-1H-imidazo[4,5-b]pyridine-7-carboximidamide] showed a pEC50 of 6.17.

`COc1c(F)cc(/C(=N/O)Nc2ccc(F)c(Cl)c2)c2[nH]cnc12` [Example 307, N-(3-chloro-4-fluorophenyl)-5-fluoro-N′-hydroxy-4-methoxy-1H-benzo[d]imidazole-7-carboximidamide]: the pEC50 is 6.68.

In the case of `O/N=C(\Nc1ccc(F)c(Cl)c1)c1ccnc2nc(CC3CCCCN3)[nH]c12` (centres unmarked) [Example 325, N-(3-chloro-4-fluorophenyl)-N′-hydroxy-2-(piperidin-2-ylmethyl)-1H-imidazo[4,5-b]pyridine-7-carboximidamide], the pEC50 was < 5.00.

Compound `CC(CN(C)C)c1nc2nccc(/C(=N/O)Nc3ccc(F)c(Cl)c3)c2[nH]1` (centres unmarked) [Example 326, N-(3-chloro-4-fluorophenyl)-2-(1-(dimethylamino)propan-2-yl)-N′-hydroxy-1H-imidazo[4,5-b]pyridine-7-carboximidamide] had a pEC50 of 5.39.
